In one data set the test system is rVSV-BDBV GP. The class given is cell-based, Bundybugyo Ebolavirus.
The nature of another data set: in vitro. The conditions noted are these: African green monkey.
A further data set relates to rVSV-EBOV GP. Nature of the data set: microbe, parasite or virus in culture. It counts as cell-based, Zaire Ebolavirus. The conditions noted are these: for IC50: Zaire ebolavirus, read-out: rVSV-EBOV IC50.
The test system of data set [1] is authentic EBOV (EBOV-Zaire 1995). Description: microbe, parasite or virus in culture. It counts as cell-based, Ebola virus. The conditions noted are these: Zaire ebolavirus, Vero, 48 h, read-out: infectious EBOV-Z IC50.
The subject of another data set is rVSV-SUDV GP. It counts as cell-based, Sudan Ebolavirus.
For data set [2], the system named is EBOV-GPCL/NPC1-C interaction. The class given is binding, human.

Bounds are passed on as bounds.

The term IC50 denotes the point on the concentration scale where inhibition reaches its midpoint. Regarding `O=[N+]([O-])c1ccc(N2CCN(Cc3ccoc3)CC2)cc1NC(c1ccccc1)c1ccccc1` [MBX 3574, 1-(benzhydrylamino)-5-[4-(furan-3-ylmethyl)piperazin-1-yl]-2-nitrobenzene], in the data set on rVSV-BDBV GP, the “inhibition of infection of Vero cells by rVSV-BDBV GP” value is “potent inhibitors”. The CC50 in the data set “in vitro” was > 200 µM. For the same compound, in the data set with rVSV-EBOV GP, the “inhibition of infection of Vero cells by rVSV-EBOV GP” value is “potent inhibitors” and the IC50 was determined as 560 nM. In addition, in data set [1], the IC50 is 1200 nM. Besides, the “inhibition of infection of Vero cells by rVSV-SUDV GP” value with rVSV-SUDV GP is on record as “potent inhibitors”.
`O=[N+]([O-])c1ccc(N2CCN(CCO)CC2)cc1NC(c1ccccc1)c1ccccc1` [MBX 3588, 1-(benzhydrylamino)-5-[4-(2-hydroxyethyl)piperazin-1-yl]-2-nitrobenzene]: in data set [2], the “inhibition of GPCL-NPC1-C AlphaLISA compared with biotin-streptavidin AlphaLISA” value is on record as “much more potently” and the “selectivity for inhibition of the EBOV-GPCL/NPC1-C interaction vs. the biotin-streptavidin interaction” value was “about 10 fold”. The CC50 in the data set “in vitro” came to 21 µM. Further, the half-inhibitory concentration (IC50) in the data set on rVSV-EBOV GP was found to be 1400 nM. For the same compound, in data set [1], the IC50 worked out at 730 nM.
`CN1CCN(c2ccc([N+](=O)[O-])c(NC(c3ccccc3)c3cccc(Cl)c3)c2)CC1` (centres unmarked) [MBX 3643, 2-[(3-chlorophenyl)(phenyl)methylamino]-4-(4-methylpiperazin-1-yl)nitrobenzene]: the CC50 in “in vitro” stood at 21 µM. For the same compound, the values for the IC50 (in the data set on rVSV-EBOV GP; in data set [1]) were 850 nM and > 20000 nM, respectively.
In the case of `O=[N+]([O-])c1ccc(N2CCN(Cc3ccco3)CC2)cc1NC(c1ccccc1)c1ccccc1` [MBX 3575, 1-(benzhydrylamino)-5-[4-(furan-2-ylmethyl)piperazin-1-yl]-2-nitrobenzene], the CC50 in the data set “in vitro” is > 200 µM. Also, the IC50 in the data set on rVSV-EBOV GP is 1700 nM; in data set [1], > 20000 nM.
For `O=[N+]([O-])c1ccc(N2CCN(Cc3ccncc3)CC2)cc1NC(c1ccccc1)c1ccccc1` [MBX 3562, 1-(benzhydrylamino)-5-[4-(pyridin-4-ylmethyl)piperazin-1-yl]-2-nitrobenzene] the same measures were > 200 µM, 5600 nM and 3100 nM.
Turning to `CN(C)CCN(C)c1ccc([N+](=O)[O-])c(NC(c2ccccc2)c2ccccc2)c1` [MBX 3729, 2-(benzhydrylamino)-4-{[2-(dimethylamino)ethyl](methyl)amino}-1-nitrobenzene], the CC50 in “in vitro” stood at 10 µM. Further, the values for the IC50 (in the data set with rVSV-EBOV GP; in data set [1]) were < 100 nM and 1300 nM, respectively.
With `O=[N+]([O-])c1ccc(N2CCN(C3CCC3)CC2)cc1NC(c1ccccc1)c1ccccc1` [MBX 3589, 1-(benzhydrylamino)-5-[4-(cyclobutyl)piperazin-1-yl]-2-nitrobenzene], in “in vitro”, the CC50 was > 200 µM. For the same compound, the IC50 in the data set on rVSV-EBOV GP is 830 nM; in data set [1] it was 8000 nM.
For `CN1CCN(c2cccc(NC(c3ccccc3)c3ccccc3)c2)CC1` [MBX 3567, 1-(benzhydrylamino)-3-(4-methylpiperazin-1-yl)benzene], the CC50 in the data set “in vitro” was determined as 19 µM. The IC50 in the data set with rVSV-EBOV GP was 2500 nM; in data set [1], 4100 nM.
Turning to `CN(C)CCCNc1ccc2ncn(C(c3ccccc3)c3ccccc3)c2c1` [MBX 4252, N^1-(1-benzhydryl-1H-benzo[d]imidazol-6-yl)-N^3,N^3-dimethylpropane-1,3-diamine], in the data set “in vitro”, the CC50 is 50 µM. For the same compound, the IC50 was 3930 nM in the data set on rVSV-EBOV GP and 8620 nM in data set [1].
Take `O=[N+]([O-])c1ccc(N2CCN(CCCO)CC2)cc1NC(c1ccccc1)c1ccccc1` [MBX 3610, 2-(benzhydrylamino)-4-[4-(3-hydroxypropyl)piperazin-1-yl]nitrobenzene]: the CC50 in the data set “in vitro” was determined as 17 µM. The IC50 (in the data set on rVSV-EBOV GP; in data set [1]) was 600 nM in each case.
As to `CN(C)CCCNc1ccc([N+](=O)[O-])c(NC(c2ccccc2)c2ccccc2)c1` [MBX 4335], the CC50 in the data set “in vitro” is 11 µM. Also, the IC50 in the data set on rVSV-EBOV GP came to 790 nM; in data set [1] it was 480 nM.
Consider `O=[N+]([O-])c1ccc(N2CCN(Cc3cccs3)CC2)cc1NC(c1ccccc1)c1ccccc1` [MBX 3576, 1-(benzhydrylamino)-5-[4-(thiophen-2-ylmethyl)piperazin-1-yl]-2-nitrobenzene], for which, in the data set “in vitro”, the CC50 is > 200 µM. The IC50 was 5800 nM in the data set on rVSV-EBOV GP and > 20000 nM in data set [1].
`CCN1CCN(c2ccc([N+](=O)[O-])c(NC(c3ccccc3)c3ccccc3)c2)CC1` [MBX 3557, 1-(benzhydrylamino)-5-(4-ethylpiperazin-1-yl)-2-nitrobenzene] displayed a CC50 in “in vitro” of 20 µM. For the same compound, the IC50 in the data set on rVSV-EBOV GP was determined as 1400 nM; in data set [1], 1900 nM.
For the compound `CC(C)(C)N1CCN(c2ccc([N+](=O)[O-])c(NC(c3ccccc3)c3ccccc3)c2)CC1` [MBX 3625, 2-benzhydrylamino-4-(4-tert-butylpiperazin-1-yl)nitrobenzene], in the data set “in vitro”, the CC50 is > 100 µM. In addition, the values for the IC50 (with rVSV-EBOV GP; in data set [1]) were 850 nM and 780 nM, respectively.
Compound `CN1CCN(c2ccc3ncn(C(c4ccccc4)c4ccccc4)c3c2)CC1` [MBX 3540, 1-benzhydryl-6-(4-methylpiperazin-1-yl)benzo[d]imidazole] gave a CC50 in the data set “in vitro” of 58 µM. The IC50 with rVSV-EBOV GP worked out at 800 nM; in data set [1], 900 nM.
The compound `CN(C)CCNc1ccc([N+](=O)[O-])c(NC(c2ccccc2)c2ccccc2)c1` [MBX 4334, N^3-benzhydryl-N^1-(2-(dimethylamino)ethyl)-4-nitrobenzene-1,3-diamine] gave a CC50 in the data set “in vitro” of 16 µM. In addition, the IC50 in the data set with rVSV-EBOV GP worked out at 1040 nM; in data set [1] it was 820 nM.
With `O=[N+]([O-])c1ccc(N2CCN(Cc3cccnc3)CC2)cc1NC(c1ccccc1)c1ccccc1` [MBX 3568, 1-(benzhydrylamino)-5-[4-(pyridin-3-ylmethyl)piperazin-1-yl]-2-nitrobenzene], the CC50 in “in vitro” is > 200 µM. The IC50 (in the data set on rVSV-EBOV GP; in data set [1]) was 4500 nM throughout.
The compound `CC(C)N(CCNc1ccc2ncn(C(c3ccccc3)c3ccccc3)c2c1)C(C)C` [MBX 4253, N1-(1-benzhydryl-1H-benzo[d]imidazol-6-yl)-N2,N2-diisopropylethane-1,2-diamine 2,2,2-trifluoroacetate] came in with a CC50 in “in vitro” of 95 µM. Also, the IC50 in the data set with rVSV-EBOV GP is 1300 nM; in data set [1], 1850 nM.
As for `CN1CCN(c2ccc(NS(C)(=O)=O)c(NC(c3ccccc3)c3ccccc3)c2)CC1` [MBX 3536A, 2-(benzhydrylamino)-4-(4-methylpiperazin-1-yl)-1-(methylsulfonamido)benzene], the CC50 in the data set “in vitro” is 26 µM. For the same compound, the IC50 in the data set with rVSV-EBOV GP came out at 2900 nM; in data set [1] it was 3100 nM.
As for `CCCCN1CCN(c2ccc([N+](=O)[O-])c(NC(c3ccccc3)c3ccccc3)c2)CC1` [MBX 3559, 1-(benzhydrylamino)-5-(4-butylpiperazin-1-yl)-2-nitrobenzene], the CC50 in the data set “in vitro” is > 200 µM. For the same compound, the figures for the IC50 (in the data set with rVSV-EBOV GP; in data set [1]) were 3600 nM and 1700 nM, respectively.
`CC(=O)Nc1ccc(N2CCN(C)CC2)cc1NC(c1ccccc1)c1ccccc1` [MBX 3525, 2-(benzhydrylamino)-4-(4-methylpiperazin-1-yl)-1-acetamidobenzene]: the CC50 in the data set “in vitro” was 100 µM. Also, the values for the IC50 (with rVSV-EBOV GP; in data set [1]) were 4000 nM and > 20000 nM, respectively.
On to `COCCN1CCN(c2ccc([N+](=O)[O-])c(NC(c3ccccc3)c3ccccc3)c2)CC1` [MBX 3591, 1-(benzhydrylamino)-5-[4-(2-methoxyethyl)piperazin-1-yl]-2-nitrobenzene], for which the CC50 in the data set “in vitro” was > 100 µM. In addition, the IC50 in the data set with rVSV-EBOV GP is 1600 nM; in data set [1], 1400 nM.
Compound `CC(C)(C)N1CCCN(c2ccc([N+](=O)[O-])c(NC(c3ccccc3)c3ccccc3)c2)CC1` [MBX 3748, 2-(benzhydrylamino)-4-[4-(tert-butyl)-1,4-diazepan-1-yl]-1-nitrobenzene] displayed a CC50 in the data set “in vitro” of 23 µM. The values for the IC50 (in the data set with rVSV-EBOV GP; in data set [1]) were 250 nM and 700 nM, respectively.
For `Cc1nc2ccc(N3CCN(C)CC3)cc2n1C(c1ccccc1)c1ccccc1` [MBX 3539, 1-benzhydryl-2-methyl-6-(4-methylpiperazin-1-yl)benzo[d]imidazole] the same measures were 77 µM, 14000 nM and > 20000 nM.
Compound `CC1CN(c2ccc3ncn(C(c4ccccc4)c4ccccc4)c3c2)CCN1C` (centres unmarked) [MBX 4212, 1-benzhydryl-6-(3,4-dimethylpiperazin-1-yl)-1H-benzo[d]imidazole] had a CC50 in “in vitro” of 170 µM. The IC50 in the data set with rVSV-EBOV GP is 1600 nM; in data set [1], 530 nM.
For `O=[N+]([O-])c1ccc(N2CCNCC2)cc1NC(c1ccccc1)c1ccccc1` [MBX 3556, 1-(benzhydrylamino)-5-(piperazin-1-yl)-2-nitrobenzene] the same measures were 5.2 µM, 1400 nM and 1100 nM.

Source of the values: patent publication US11459308B2 (priority 2016, dated 2022).
